Measurements as given in ChEMBL document CHEMBL5316275 (J Med Chem, 2023).

Target: Albumin (Homo sapiens, UniProt P02768)
Assay: Binding affinity to human serum albumin assessed as association constant measured after 18 hrs by equilibrium dialysis method

Sequence of Albumin (P02768 whole entry): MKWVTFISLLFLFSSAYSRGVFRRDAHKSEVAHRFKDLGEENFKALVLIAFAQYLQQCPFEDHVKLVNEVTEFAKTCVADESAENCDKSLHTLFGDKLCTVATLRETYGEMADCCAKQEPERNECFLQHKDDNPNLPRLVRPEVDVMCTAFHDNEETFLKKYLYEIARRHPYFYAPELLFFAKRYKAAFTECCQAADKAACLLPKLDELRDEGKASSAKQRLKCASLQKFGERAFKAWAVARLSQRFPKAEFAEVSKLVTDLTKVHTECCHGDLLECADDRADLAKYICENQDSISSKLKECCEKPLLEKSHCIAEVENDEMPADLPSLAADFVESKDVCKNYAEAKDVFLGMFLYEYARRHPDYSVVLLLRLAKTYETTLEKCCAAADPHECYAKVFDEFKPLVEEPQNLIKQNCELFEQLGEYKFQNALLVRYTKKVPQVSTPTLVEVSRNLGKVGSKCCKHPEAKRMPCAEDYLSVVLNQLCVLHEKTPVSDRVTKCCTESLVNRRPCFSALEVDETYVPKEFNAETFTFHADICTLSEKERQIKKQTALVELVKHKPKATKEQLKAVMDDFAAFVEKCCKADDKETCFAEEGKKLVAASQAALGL

K	SMILES
1.91 10^5/M	COC(=O)CC/C(C)=C/Cc1c(O)c2c(c(C)c1OC)COC2=O
0.83 10^5/M	COc1c(C)c2c(c(O)c1C/C=C(\C)CCC(=O)OCCN1CCOCC1)C(=O)OC2 [MYCOPHENOLATE MOFETIL]
